Literature values, collected in US8895779B2 (BioAmber Inc., priority 2010, dated 2014).

Conditions: Table 1, Run 1, acid charged

**Q.** For `O=C(O)CCCCC(=O)O` [AA, adipic acid], which pKa1 is on record?
**A.** Its pKa1 is 4.43.
